The values that follow come from patent US4504414A, “Synthetic pyridyl-alanyl decapeptides having antiovulatory activity” (Board of Regents, The University of Texas System, priority 1983, dated 1985).

Where “and” joins values, the source holds several entries; their conditions need not be identical. Equal entries are not always repeated. Where two headings read alike, the source gives them in different places.

In assay [1] the test system is ovulation in rats. The assay is described as follows: Inhibition of ovulation in rats, subcutaneous administration. As to conditions: for inhibition of ovulation: 40 hrs before anticipated ovulation. It counts as in vivo, rat. The method, then: (§1) Biological Assays. The peptides were assayed for activity to inhibit ovulation in rats, as described [J. Humphries, Y.-P. Wan, K. Folkers and C. Y. Bowers; J. Med. Chem. 21, 120-123 (1978)]. The procedure for assay when the antagonist is administered orally is the same except for the route of administration.

For assay [2], the system named is ovulation in the rat. The experiment in a line: Assays of antagonists for oral activity (inhibition of ovulation in the rat). It counts as in vivo. The procedure: as §1
Analogs I, XI and XII were also tested by the oral route of administration for inhibition of ovulation in the rat, since the projected human application would be by oral administration. The data in Table 3 resulted from the administration at noon. When the administration is at 2:30 PM, effectiveness is reduced, presumably because of the LH surge. Analog I caused 100% AOA at a 2 mg dosage with administration at noon and 71% AOA/2 mg and 50% AOA/1 mg by administration at 2:30 PM Nekola et al. [Science 218, 160-162 (1982)] have reported on the oral activity of I under diverse conditions.

The subject of assay [3] is ovulation in rats. As to conditions: data of Coy et al., cited from earlier work.

Regarding “[N--Ac-- (pCl--D-Phe)^1,2,D-Trp^3,D-3-Pal^6,D-Ala^10 ]--LHRH [Analog VII]”, in assay [1] (dose 2.0 μg), the “% AOA (% inhibition of ovulation in rats)” value is 13%.
On to “[N--Ac--3,4-diCl--D-Phe^1,pCl--D-Phehu 2,D-3-Pal^3,D-Arg^7, D-Ala^10 ]--LHRH [Analog XII]”, for which the “Rats ovu./No. rats” value in assay [1] (dose 0.25 μg) was 9/9. Also, in assay [1] (dose 0.5 μg), the “% AOA (% inhibition of ovulation in rats)” value worked out at 82% and the “Rats ovu./No. rats” value is 9/11. In addition, in assay [2] (250 μg, administered at noon), the “No. Ova.” value is recorded as 12.2 ± 1.0 and the “Rats Ovu./No. Rats” value was 5/5. Moreover, in assay [2] (500 μg, administered at noon), the “% AOA” value is 63%, the “No. Ova.” value is reported as 5.6 ± 2.7 and the “Rats Ovu./No. Rats” value is listed as 3/8.
Regarding “[N--Ac--(pCl--D-Phe)^1,2,D-3-Pal^3,D-Trp^6,D-Ala^10 ]--LHRH [Analog VIII]”, in assay [1] (dose 1.0 μg), the “Rats ovu./No. rats” value was 10/10.
“[N--Ac--(pCl--D-Phe)^1,2,D-4-Pal^3,6,D-Ala^10 ]--LHRH [Analog VI]”: in assay [1] (dose 6.0 μg), the “% AOA (% inhibition of ovulation in rats)” value was 63% and 62.5%; the “Rats ovu./No. rats” value is 3/8.
With “[N--Ac--(pCl--D-Phe)^1,2,D-3-Pal^3,6,D-Ala^10 ]--LHRH [Analog V]”, the “% AOA (% inhibition of ovulation in rats)” value in assay [1] (dose 1.0 μg) was found to be 50%; in assay [1] (dose 3.0 μg), 100%. In addition, the “Rats ovu./No. rats” value is given as 5/10 in assay [1] (dose 1.0 μg) and 0/7 in assay [1] (dose 3.0 μg).
The like results for “[N--Ac--(pCl--D-Phe)^1,2,D-3-Pal^3,6 ]--LHRH [Analog X]” were, in that order, 17%, 86%, 5/6 and 1/7.
As to “[N--Ac--(pCl--D-Phe)^1,2,D-3-Pal^3,D-Arg^6,D-Ala^10 ]--LHRH [Analog II]”, in assay [1] (dose 0.5 μg), the “% AOA (% inhibition of ovulation in rats)” value was 58% and the “Rats ovu./No. rats” value is on record as 8/19. In assay [1] (dose 1.0 μg), the “% AOA (% inhibition of ovulation in rats)” value turned out to be 78% and the “Rats ovu./No. rats” value is recorded as 3/14.
On to “[N--Ac--(pCl--D-Phe)^1,2,D-Trp^3,D-Arg^6,D-Ala^10 ]--LHRH [Analog I, reference compound]”, for which the figures for the “% AOA (% inhibition of ovulation in rats)” value in assay [1] (dose 1.0 μg), in assay [3] (dose 0.75 μg) and in assay [3] (dose 1.5 μg) were 83%, 40% and 100%, respectively. Besides, the “Rats ovu./No. rats” value in assay [1] (dose 1.0 μg) was 1/6; in assay [3] (dose 0.75 μg), 6/10; in assay [3] (dose 1.5 μg) it was 0/10. Besides, the “% AOA” value in assay [2] (1 mg, administered at 2:30 PM) is listed as 50%; in assay [2] (2 mg, administered at 2:30 PM), 71%; in assay [2] (2 mg, administered at noon), 100%. Moreover, the “No. Ova.” value in assay [2] (2 mg, administered at noon) was 0. For the same substance, the “Rats Ovu./No. Rats” value in assay [2] (2 mg, administered at noon) is listed as 0/8.
In the case of “[N--Ac--(pCl--D-Phe)^1,2,D-4-Pal^3,D-Arg^6,D-Ala^10 ]--LHRH [Analog IV]”, in assay [1] (dose 0.5 μg), the “% AOA (% inhibition of ovulation in rats)” value came out at 14% and the “Rats ovu./No. rats” value is on record as 6/7. Further, in assay [1] (dose 6.0 μg), the “% AOA (% inhibition of ovulation in rats)” value turned out to be 33% and the “Rats ovu./No. rats” value is 6/9.
As to “[N--Ac--D-2-Nal^1,pCl--D-Phe^2,D-3-Pal^3,D-Arg^6, D-Ala^10 ]--LHRH [Analog XI]”, the inhibition of ovulation in assay [1] (10 μg), in assay [1] (30 μg) and in assay [1] (100 μg) was 100% each time. Further, the results for the “% AOA (% inhibition of ovulation in rats)” value in assay [1] (dose 0.25 μg) and in assay [1] (dose 0.5 μg) were 57% and 100%, respectively. The “Rats ovu./No. rats” value in assay [1] (dose 0.25 μg) is reported as 3/7; in assay [1] (dose 0.5 μg), 0/9. Also, the “% AOA” value stood at 10% in assay [2] (250 μg, administered at noon) and 56% in assay [2] (500 μg, administered at noon). Also, the “No. Ova.” value is recorded as 13.0 ± 1.8 in assay [2] (250 μg, administered at noon) and 6.1 ± 2.5 in assay [2] (500 μg, administered at noon). Moreover, the “Rats Ovu./No. Rats” value in assay [2] (250 μg, administered at noon) is 9/10; in assay [2] (500 μg, administered at noon), 4/9.
For the substance “[N--Ac--(pCl--D-Phe)^1,2,D-2-Pal^3,D-Arg^6,D-Ala^10 ]--LHRH [Analog III]”, in assay [1] (dose 1.0 μg), the “% AOA (% inhibition of ovulation in rats)” value is 29% and the “Rats ovu./No. rats” value is 5/7.
Taken in the same sequence, the figures for “[N--Ac--(pCl--D-Phe)^1,2,D-3-Pal^3,D-Arg^6,D-Abu^10 ]--LHRH [Analog IX]” were 10% and 9/10.
